Laboratory results from patent US10844077B2, “Thiazolyl-containing compounds for treating proliferative diseases” (Dana-Farber Cancer Institute, Inc., priority 2014, dated 2020).

Columns and labels:
Format in all cases: binding
broad panel of kinases [1] = biological target: broad panel of kinases (Homo sapiens, UniProt O00141); conditions: SGK; 1 μM
broad panel of kinases [2] = biological target: broad panel of kinases (Homo sapiens, UniProt O14936); conditions: CASK; 1 μM
broad panel of kinases [3] = biological target: broad panel of kinases (Homo sapiens, UniProt O15146); conditions: MUSK; 1 μM
Chain of broad panel of kinases (Homo sapiens, UniProt O15146) (O15146 24-869 limits assumed): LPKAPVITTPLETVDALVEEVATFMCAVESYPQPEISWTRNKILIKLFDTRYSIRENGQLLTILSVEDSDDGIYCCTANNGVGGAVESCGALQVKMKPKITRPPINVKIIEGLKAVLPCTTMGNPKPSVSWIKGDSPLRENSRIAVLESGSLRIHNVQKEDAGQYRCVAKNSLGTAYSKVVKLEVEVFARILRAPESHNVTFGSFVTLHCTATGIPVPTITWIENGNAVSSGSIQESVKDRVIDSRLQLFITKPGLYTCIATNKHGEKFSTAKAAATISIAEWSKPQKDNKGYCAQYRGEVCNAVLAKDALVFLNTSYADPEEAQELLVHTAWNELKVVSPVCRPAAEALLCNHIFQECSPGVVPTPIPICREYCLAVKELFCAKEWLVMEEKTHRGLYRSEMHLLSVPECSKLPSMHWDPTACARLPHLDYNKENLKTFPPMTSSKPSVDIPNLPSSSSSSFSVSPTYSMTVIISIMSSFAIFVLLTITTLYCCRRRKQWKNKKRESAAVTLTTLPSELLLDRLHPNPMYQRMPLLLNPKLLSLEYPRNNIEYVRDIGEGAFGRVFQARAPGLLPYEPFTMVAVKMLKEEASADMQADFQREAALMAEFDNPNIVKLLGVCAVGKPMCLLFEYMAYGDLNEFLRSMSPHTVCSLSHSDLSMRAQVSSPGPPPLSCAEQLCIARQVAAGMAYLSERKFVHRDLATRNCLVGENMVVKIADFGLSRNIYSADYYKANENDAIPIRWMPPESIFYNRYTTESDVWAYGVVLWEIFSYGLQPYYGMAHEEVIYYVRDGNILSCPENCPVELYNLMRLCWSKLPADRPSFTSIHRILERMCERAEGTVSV

broad panel of kinases [4] = biological target: broad panel of kinases (Homo sapiens, UniProt O60674); conditions: JAK2(JH1domain-catalytic); 1 μM
broad panel of kinases [5] = biological target: broad panel of kinases (Homo sapiens, UniProt O75385); conditions: ULK1; 1 μM
broad panel of kinases [6] = biological target: broad panel of kinases (Homo sapiens, UniProt O96013); conditions: PAK4; 1 μM
broad panel of kinases [7] = biological target: broad panel of kinases (Homo sapiens, UniProt P00533, T790M); conditions: EGFR(T790M); 1 μM
Chain of broad panel of kinases (Homo sapiens, UniProt P00533, T790M) (P00533 25-1210 T790M limits assumed): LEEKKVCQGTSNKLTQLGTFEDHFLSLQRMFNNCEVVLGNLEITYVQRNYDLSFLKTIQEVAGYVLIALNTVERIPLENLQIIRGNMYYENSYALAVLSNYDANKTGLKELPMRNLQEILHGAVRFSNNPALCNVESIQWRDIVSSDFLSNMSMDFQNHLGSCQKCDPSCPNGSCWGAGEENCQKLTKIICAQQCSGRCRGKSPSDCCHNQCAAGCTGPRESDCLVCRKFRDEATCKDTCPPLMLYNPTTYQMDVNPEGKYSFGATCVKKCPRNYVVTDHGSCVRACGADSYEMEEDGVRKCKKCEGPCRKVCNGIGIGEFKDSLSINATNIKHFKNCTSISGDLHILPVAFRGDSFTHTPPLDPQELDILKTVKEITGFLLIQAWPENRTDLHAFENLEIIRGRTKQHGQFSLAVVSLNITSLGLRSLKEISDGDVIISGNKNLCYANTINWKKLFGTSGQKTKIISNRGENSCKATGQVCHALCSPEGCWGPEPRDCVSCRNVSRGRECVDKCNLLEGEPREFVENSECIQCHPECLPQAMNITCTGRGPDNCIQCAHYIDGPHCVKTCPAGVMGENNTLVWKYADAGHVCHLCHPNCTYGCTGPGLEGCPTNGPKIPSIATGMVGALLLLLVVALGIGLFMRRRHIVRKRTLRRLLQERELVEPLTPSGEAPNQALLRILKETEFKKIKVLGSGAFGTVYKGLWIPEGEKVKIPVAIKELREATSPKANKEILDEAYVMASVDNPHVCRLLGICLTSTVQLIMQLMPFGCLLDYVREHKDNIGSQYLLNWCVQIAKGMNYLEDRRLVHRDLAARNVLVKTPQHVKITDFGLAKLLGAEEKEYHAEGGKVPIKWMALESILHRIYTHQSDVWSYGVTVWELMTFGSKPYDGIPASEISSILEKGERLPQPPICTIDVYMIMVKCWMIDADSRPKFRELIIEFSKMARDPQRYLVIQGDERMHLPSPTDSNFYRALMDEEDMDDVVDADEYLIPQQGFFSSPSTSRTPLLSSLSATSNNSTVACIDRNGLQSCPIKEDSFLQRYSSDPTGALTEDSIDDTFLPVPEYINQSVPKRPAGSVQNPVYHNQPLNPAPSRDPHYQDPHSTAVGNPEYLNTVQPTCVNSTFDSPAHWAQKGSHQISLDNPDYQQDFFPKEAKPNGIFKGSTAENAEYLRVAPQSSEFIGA

broad panel of kinases [8] = biological target: broad panel of kinases (Homo sapiens, UniProt P07949, V804M); conditions: RET(V804M); 1 μM
broad panel of kinases [9] = biological target: broad panel of kinases (Homo sapiens, UniProt P14616); conditions: INSRR; 1 μM
Chain of broad panel of kinases (Homo sapiens, UniProt P14616) (P14616 27-742 limits assumed): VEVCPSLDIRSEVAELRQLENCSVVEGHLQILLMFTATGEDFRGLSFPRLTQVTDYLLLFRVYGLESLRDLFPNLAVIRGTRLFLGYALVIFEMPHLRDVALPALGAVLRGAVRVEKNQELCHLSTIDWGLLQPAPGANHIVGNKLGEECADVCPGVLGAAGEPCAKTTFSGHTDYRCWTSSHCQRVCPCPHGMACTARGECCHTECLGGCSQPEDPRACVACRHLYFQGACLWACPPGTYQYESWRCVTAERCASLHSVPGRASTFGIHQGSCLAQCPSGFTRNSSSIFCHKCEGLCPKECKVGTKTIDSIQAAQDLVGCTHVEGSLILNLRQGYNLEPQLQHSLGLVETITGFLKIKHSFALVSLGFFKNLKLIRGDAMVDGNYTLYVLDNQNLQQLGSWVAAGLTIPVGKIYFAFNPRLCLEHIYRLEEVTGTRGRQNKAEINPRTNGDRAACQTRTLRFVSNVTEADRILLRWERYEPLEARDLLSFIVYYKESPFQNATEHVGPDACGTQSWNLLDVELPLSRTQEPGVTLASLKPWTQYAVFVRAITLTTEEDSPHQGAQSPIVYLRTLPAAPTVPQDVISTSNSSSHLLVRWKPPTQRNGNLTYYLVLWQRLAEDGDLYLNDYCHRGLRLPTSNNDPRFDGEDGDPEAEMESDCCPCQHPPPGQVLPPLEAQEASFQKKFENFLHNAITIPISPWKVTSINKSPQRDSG
Chain of broad panel of kinases (Homo sapiens, UniProt P14616) (P14616 747-1297 limits assumed): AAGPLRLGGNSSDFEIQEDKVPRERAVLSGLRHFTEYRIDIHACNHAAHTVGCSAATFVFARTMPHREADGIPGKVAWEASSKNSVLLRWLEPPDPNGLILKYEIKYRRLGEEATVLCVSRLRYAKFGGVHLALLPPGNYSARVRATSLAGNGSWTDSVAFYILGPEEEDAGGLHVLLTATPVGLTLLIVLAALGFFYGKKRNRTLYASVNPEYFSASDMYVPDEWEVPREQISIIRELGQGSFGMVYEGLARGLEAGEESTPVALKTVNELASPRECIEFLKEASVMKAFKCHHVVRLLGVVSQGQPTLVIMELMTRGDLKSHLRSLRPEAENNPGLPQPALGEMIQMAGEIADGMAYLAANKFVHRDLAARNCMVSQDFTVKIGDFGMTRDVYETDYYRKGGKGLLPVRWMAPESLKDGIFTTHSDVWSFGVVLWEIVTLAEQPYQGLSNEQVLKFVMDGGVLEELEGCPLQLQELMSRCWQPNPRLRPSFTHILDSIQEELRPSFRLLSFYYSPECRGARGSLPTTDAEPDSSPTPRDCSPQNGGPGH

broad panel of kinases [10] = biological target: broad panel of kinases (Homo sapiens, UniProt P35968); conditions: VEGFR2; 1 μM
broad panel of kinases [11] = biological target: broad panel of kinases (Homo sapiens, UniProt P36894); conditions: BMPR1A; 1 μM
broad panel of kinases [12] = biological target: broad panel of kinases (Homo sapiens, UniProt P37173); conditions: TGFBR2; 1 μM
broad panel of kinases [13] = biological target: broad panel of kinases (Homo sapiens, UniProt P42336, E542K); conditions: PIK3CA(E542K); 1 μM
broad panel of kinases [14] = biological target: broad panel of kinases (Homo sapiens, UniProt P42336, E545K); conditions: PIK3CA(E545K); 1 μM
broad panel of kinases [15] = biological target: broad panel of kinases (Homo sapiens, UniProt P42345); conditions: MTOR; 1 μM
broad panel of kinases [16] = biological target: broad panel of kinases (Homo sapiens, UniProt P43405); conditions: SYK; 1 μM
broad panel of kinases [17] = biological target: broad panel of kinases (Homo sapiens, UniProt P49761); conditions: CLK3; 1 μM
broad panel of kinases [18] = biological target: broad panel of kinases (Homo sapiens, UniProt P54646); conditions: AMPK-alpha2; 1 μM
broad panel of kinases [19] = biological target: broad panel of kinases (Homo sapiens, UniProt Q02750); conditions: MEK1; 1 μM
broad panel of kinases [20] = biological target: broad panel of kinases (Homo sapiens, UniProt Q04912); conditions: MST1R; 1 μM
broad panel of kinases [21] = biological target: broad panel of kinases (Homo sapiens, UniProt Q08345); conditions: DDR1; 1 μM
broad panel of kinases [22] = biological target: broad panel of kinases (Homo sapiens, UniProt Q13177); conditions: PAK2; 1 μM
broad panel of kinases [23] = biological target: broad panel of kinases (Homo sapiens, UniProt Q15375); conditions: EPHA7; 1 μM
broad panel of kinases [24] = biological target: broad panel of kinases (Homo sapiens, UniProt Q56UN5); conditions: YSK4; 1 μM
broad panel of kinases [25] = biological target: broad panel of kinases (Homo sapiens, UniProt Q86UE8); conditions: TLK2; 1 μM
broad panel of kinases [26] = biological target: broad panel of kinases (Homo sapiens, UniProt Q8WXR4); conditions: MYO3B; 1 μM
broad panel of kinases [27] = biological target: broad panel of kinases (Homo sapiens, UniProt Q9BWU1); conditions: CDK11; 1 μM
broad panel of kinases [28] = biological target: broad panel of kinases (Homo sapiens, UniProt Q9BXA7); conditions: TSSK1B; 1 μM
broad panel of kinases [29] = biological target: broad panel of kinases (Homo sapiens, UniProt Q9H093); conditions: SNARK; 1 μM
broad panel of kinases [30] = biological target: broad panel of kinases (Homo sapiens, UniProt Q9H0K1); conditions: SIK2; 1 μM
broad panel of kinases [31] = biological target: broad panel of kinases (Homo sapiens, UniProt Q9NY57); conditions: YANK2; 1 μM
broad panel of kinases [32] = biological target: broad panel of kinases (Homo sapiens, UniProt Q9P0L2); conditions: MARK1; 1 μM
broad panel of kinases [33] = biological target: broad panel of kinases (Homo sapiens, UniProt Q9UBF8); conditions: PIK4CB; 1 μM
broad panel of kinases [34] = biological target: broad panel of kinases (Homo sapiens, UniProt Q9UIK4); conditions: DAPK2; 1 μM
broad panel of kinases [35] = biological target: broad panel of kinases (Homo sapiens, UniProt Q9UL54); conditions: TAOK2; 1 μM
broad panel of kinases [36] = biological target: broad panel of kinases (Homo sapiens, UniProt Q9UM73, L1196M); conditions: ALK(L1196M); 1 μM
Chain of broad panel of kinases (Homo sapiens, UniProt Q9UM73, L1196M) (Q9UM73 19-1620 L1196M limits assumed): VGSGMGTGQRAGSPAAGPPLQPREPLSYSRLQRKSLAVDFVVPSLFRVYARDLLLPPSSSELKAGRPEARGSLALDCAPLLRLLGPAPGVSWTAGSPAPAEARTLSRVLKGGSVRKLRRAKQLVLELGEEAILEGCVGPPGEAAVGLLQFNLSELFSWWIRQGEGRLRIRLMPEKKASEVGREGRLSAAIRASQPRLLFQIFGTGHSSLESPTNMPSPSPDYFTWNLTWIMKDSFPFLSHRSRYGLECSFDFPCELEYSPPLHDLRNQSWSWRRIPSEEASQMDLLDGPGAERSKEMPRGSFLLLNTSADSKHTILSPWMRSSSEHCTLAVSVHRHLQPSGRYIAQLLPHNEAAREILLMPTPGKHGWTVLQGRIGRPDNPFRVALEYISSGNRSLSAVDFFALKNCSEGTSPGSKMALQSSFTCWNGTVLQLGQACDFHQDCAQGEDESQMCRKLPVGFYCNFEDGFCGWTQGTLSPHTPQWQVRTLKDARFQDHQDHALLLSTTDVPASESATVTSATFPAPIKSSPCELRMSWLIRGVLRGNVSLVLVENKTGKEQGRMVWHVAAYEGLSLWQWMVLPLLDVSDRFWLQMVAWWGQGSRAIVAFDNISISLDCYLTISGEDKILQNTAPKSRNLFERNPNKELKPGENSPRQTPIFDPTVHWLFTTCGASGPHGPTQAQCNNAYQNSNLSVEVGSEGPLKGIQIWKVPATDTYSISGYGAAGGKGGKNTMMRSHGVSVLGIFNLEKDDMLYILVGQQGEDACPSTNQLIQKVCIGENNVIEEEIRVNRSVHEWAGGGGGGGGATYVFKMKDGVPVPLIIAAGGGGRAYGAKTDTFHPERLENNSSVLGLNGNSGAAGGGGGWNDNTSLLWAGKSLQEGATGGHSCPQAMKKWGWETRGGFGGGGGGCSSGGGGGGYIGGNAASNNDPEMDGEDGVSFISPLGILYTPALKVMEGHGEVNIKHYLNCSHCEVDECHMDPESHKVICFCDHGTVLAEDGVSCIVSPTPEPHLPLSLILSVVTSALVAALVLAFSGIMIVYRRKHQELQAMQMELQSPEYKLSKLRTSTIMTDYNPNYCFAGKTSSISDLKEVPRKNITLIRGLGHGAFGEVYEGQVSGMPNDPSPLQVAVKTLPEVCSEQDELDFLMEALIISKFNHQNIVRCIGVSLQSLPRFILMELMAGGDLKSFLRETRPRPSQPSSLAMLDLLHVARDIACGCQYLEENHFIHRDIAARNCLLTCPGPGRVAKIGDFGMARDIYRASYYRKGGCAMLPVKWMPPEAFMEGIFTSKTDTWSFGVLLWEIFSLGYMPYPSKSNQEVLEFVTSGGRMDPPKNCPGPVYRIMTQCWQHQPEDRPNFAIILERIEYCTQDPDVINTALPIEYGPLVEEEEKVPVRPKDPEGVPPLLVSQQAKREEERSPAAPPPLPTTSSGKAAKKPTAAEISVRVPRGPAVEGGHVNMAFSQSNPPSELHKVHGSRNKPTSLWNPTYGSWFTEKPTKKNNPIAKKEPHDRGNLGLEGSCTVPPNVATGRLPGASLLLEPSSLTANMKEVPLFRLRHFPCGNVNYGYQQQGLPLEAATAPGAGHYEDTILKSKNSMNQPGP

broad panel of kinases [37] = biological target: broad panel of kinases (Homo sapiens, UniProt Q9Y2U5); conditions: MAP3K2; 1 μM

Structure (SMILES) | percent of control binding remaining (lower = stronger binding) (broad panel of kinases [1]) | percent of control binding remaining (lower = stronger binding) (broad panel of kinases [2]) | percent of control binding remaining (lower = stronger binding) (broad panel of kinases [3]) | percent of control binding remaining (lower = stronger binding) (broad panel of kinases [4]) | percent of control binding remaining (lower = stronger binding) (broad panel of kinases [5]) | percent of control binding remaining (lower = stronger binding) (broad panel of kinases [6]) | percent of control binding remaining (lower = stronger binding) (broad panel of kinases [7]) | percent of control binding remaining (lower = stronger binding) (broad panel of kinases [8]) | percent of control binding remaining (lower = stronger binding) (broad panel of kinases [9]) | percent of control binding remaining (lower = stronger binding) (broad panel of kinases [10]) | percent of control binding remaining (lower = stronger binding) (broad panel of kinases [11]) | percent of control binding remaining (lower = stronger binding) (broad panel of kinases [12]) | percent of control binding remaining (lower = stronger binding) (broad panel of kinases [13]) | percent of control binding remaining (lower = stronger binding) (broad panel of kinases [14]) | percent of control binding remaining (lower = stronger binding) (broad panel of kinases [15]) | percent of control binding remaining (lower = stronger binding) (broad panel of kinases [16]) | percent of control binding remaining (lower = stronger binding) (broad panel of kinases [17]) | percent of control binding remaining (lower = stronger binding) (broad panel of kinases [18]) | percent of control binding remaining (lower = stronger binding) (broad panel of kinases [19]) | percent of control binding remaining (lower = stronger binding) (broad panel of kinases [20]) | other results
C=CC(=O)N1CC[C@H](Nc2nc(CN3CCOCC3)cc(Nc3ncc(C(=O)Nc4c(C)cccc4C)s3)n2)C1 [Example I-2] | 56% | 100% | 98% | 65% | 79% | 100% | 48% | 100% | 96% | 100% | 100% | 94% | 92% | 94% | 100% | 86% | 100% | 92% | 67% | 99% | percent of control binding remaining (lower = stronger binding) (broad panel of kinases [21]): 0.2%; percent of control binding remaining (lower = stronger binding) (broad panel of kinases [22]): 92%; percent of control binding remaining (lower = stronger binding) (broad panel of kinases [23]): 100%; percent of control binding remaining (lower = stronger binding) (broad panel of kinases [24]): 100%; percent of control binding remaining (lower = stronger binding) (broad panel of kinases [25]): 97%; percent of control binding remaining (lower = stronger binding) (broad panel of kinases [26]): 93%; percent of control binding remaining (lower = stronger binding) (broad panel of kinases [27]): 98%; percent of control binding remaining (lower = stronger binding) (broad panel of kinases [28]): 73%; percent of control binding remaining (lower = stronger binding) (broad panel of kinases [29]): 100%; percent of control binding remaining (lower = stronger binding) (broad panel of kinases [30]): 92%; percent of control binding remaining (lower = stronger binding) (broad panel of kinases [31]): 100%; percent of control binding remaining (lower = stronger binding) (broad panel of kinases [32]): 97%; percent of control binding remaining (lower = stronger binding) (broad panel of kinases [33]): 100%; percent of control binding remaining (lower = stronger binding) (broad panel of kinases [34]): 86%; percent of control binding remaining (lower = stronger binding) (broad panel of kinases [35]): 65%; percent of control binding remaining (lower = stronger binding) (broad panel of kinases [36]): 72%; percent of control binding remaining (lower = stronger binding) (broad panel of kinases [37]): 96%
C=CC(=O)N1CC[C@H](Nc2nccc(Nc3ncc(C(=O)Nc4c(C)cccc4C)s3)n2)C1 [Example I-3] | 61% | 98% | 100% | 82% | 86% | 100% | 56% | 100% | 100% | 100% | 92% | 100% | 100% | 100% | 100% | 81% | 95% | 78% | 100% | 100% | percent of control binding remaining (lower = stronger binding) (broad panel of kinases [21]): 0.15%; percent of control binding remaining (lower = stronger binding) (broad panel of kinases [22]): 93%; percent of control binding remaining (lower = stronger binding) (broad panel of kinases [23]): 100%; percent of control binding remaining (lower = stronger binding) (broad panel of kinases [24]): 100%; percent of control binding remaining (lower = stronger binding) (broad panel of kinases [25]): 94%; percent of control binding remaining (lower = stronger binding) (broad panel of kinases [26]): 86%; percent of control binding remaining (lower = stronger binding) (broad panel of kinases [27]): 83%; percent of control binding remaining (lower = stronger binding) (broad panel of kinases [28]): 100%; percent of control binding remaining (lower = stronger binding) (broad panel of kinases [29]): 100%; percent of control binding remaining (lower = stronger binding) (broad panel of kinases [30]): 98%; percent of control binding remaining (lower = stronger binding) (broad panel of kinases [31]): 96%; percent of control binding remaining (lower = stronger binding) (broad panel of kinases [32]): 93%; percent of control binding remaining (lower = stronger binding) (broad panel of kinases [33]): 36%; percent of control binding remaining (lower = stronger binding) (broad panel of kinases [34]): 80%; percent of control binding remaining (lower = stronger binding) (broad panel of kinases [35]): 67%; percent of control binding remaining (lower = stronger binding) (broad panel of kinases [36]): 76%; percent of control binding remaining (lower = stronger binding) (broad panel of kinases [37]): 98%
